Experimental data as given in ChEMBL document CHEMBL4837259, “Comprehensive Approach of 19F Nuclear Magnetic Resonance, Enzymatic, and In Silico Methods for Site-Specific Hit Selection and Validation of Fragment Molecules that Inhibit Methionine γ-Lyase Activity” (J Med Chem, 2021).
Calls of active or inactive are those of the source. The calls are words filed in the database; no cut-off is given here.

Legend:
Fusobacterium nucleatum [1] = assay: Inhibition of Fusobacterium nucleatum ATCC 25586 recombinant MGL R373K mutant expressed in Escherichia coli BL21 (DE3) assessed as decrease in signal intensity by measuring recovery ratio by 19F NMR based competition assay relative to wild type; set-up: concentration or dose not given beside the values
Fusobacterium nucleatum [2] = assay: Inhibition of Fusobacterium nucleatum ATCC 25586 recombinant MGL C113S mutant expressed in Escherichia coli BL21 (DE3) assessed as decrease in signal intensity by measuring recovery ratio by 19F NMR based competition assay relative to wild type; set-up: scale not given: the % may be the effect or the level left
Fusobacterium nucleatum [3] = assay: Inhibition of Fusobacterium nucleatum ATCC 25586 recombinant MGL K238A mutant expressed in Escherichia coli BL21 (DE3) assessed as decrease in signal intensity by measuring recovery ratio by 19F NMR based competition assay relative to wild type; set-up: concentration or dose not given beside the values
Fusobacterium nucleatum [4] = assay: Inhibition of Fusobacterium nucleatum ATCC 25586 recombinant MGL R58A mutant expressed in Escherichia coli BL21 (DE3) assessed as decrease in signal intensity by measuring recovery ratio by 19F NMR based competition assay relative to wild type; set-up: scale not given: the % may be the effect or the level left
Fusobacterium nucleatum [5] = assay: Inhibition of Fusobacterium nucleatum ATCC 25586 recombinant MGL R58K mutant expressed in Escherichia coli BL21 (DE3) assessed as decrease in signal intensity by measuring recovery ratio by 19F NMR based competition assay relative to wild type; set-up: scale not given: the % may be the effect or the level left
[6] = target: T1, L-methionine gamma-lyase (Fusobacterium nucleatum subsp. nucleatum) (UniProt Q8RDT4); assay: Inhibition of Fusobacterium nucleatum ATCC 25586 recombinant wild type MGL expressed in Escherichia coli BL21 (DE3) assessed as decrease in signal intensity by 19F NMR based competition assay relative to control; set-up: concentration or dose not given beside the values
T1 sequence (whole entry): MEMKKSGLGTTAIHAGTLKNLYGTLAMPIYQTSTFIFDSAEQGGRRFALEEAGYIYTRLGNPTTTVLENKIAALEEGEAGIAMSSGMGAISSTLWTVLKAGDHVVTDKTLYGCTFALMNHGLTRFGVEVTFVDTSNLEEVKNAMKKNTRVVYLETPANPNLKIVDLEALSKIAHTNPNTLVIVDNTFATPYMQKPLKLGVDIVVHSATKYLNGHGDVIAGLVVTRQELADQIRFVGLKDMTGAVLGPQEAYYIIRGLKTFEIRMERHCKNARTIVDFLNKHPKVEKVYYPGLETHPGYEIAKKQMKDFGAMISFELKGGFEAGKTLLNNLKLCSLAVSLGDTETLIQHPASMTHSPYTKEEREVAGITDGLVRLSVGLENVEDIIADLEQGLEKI

Fusobacterium nucleatum [7] = assay: Inhibition of Fusobacterium nucleatum ATCC 25586 recombinant MGL Y56F mutant expressed in Escherichia coli BL21 (DE3) assessed as decrease in signal intensity by measuring recovery ratio by 19F NMR based competition assay relative to wild type; set-up: concentration or dose not given beside the values
Fusobacterium nucleatum [8] = assay: Inhibition of Fusobacterium nucleatum ATCC 25586 recombinant MGL R373A mutant expressed in Escherichia coli BL21 (DE3) assessed as decrease in signal intensity by measuring recovery ratio by 19F NMR based competition assay relative to wild type; set-up: scale not given: the % may be the effect or the level left
[9] = target: T1, L-methionine gamma-lyase (Fusobacterium nucleatum subsp. nucleatum); assay: Inhibition of Fusobacterium nucleatum ATCC 25586 recombinant wild type MGL expressed in Escherichia coli BL21 (DE3) assessed as formation of 2-ketobutyrate using L-methionine as substrate by enzymatic assay; set-up: concentration or dose not given beside the values; settings: concentration not given here
Fusobacterium nucleatum [10] = assay: Inhibition of Fusobacterium nucleatum ATCC 25586 recombinant MGL Y111F mutant expressed in Escherichia coli BL21 (DE3) assessed as decrease in signal intensity by measuring recovery ratio by 19F NMR based competition assay relative to wild type; set-up: concentration or dose not given beside the values

CC(C)(C)OC(=O)N[C@H]1CC[C@H](N2Cc3cccc(F)c3C2=O)CC1
Activity (Fusobacterium nucleatum [1]): Active | Activity (Fusobacterium nucleatum [2]): Active | Activity (Fusobacterium nucleatum [3]): Active | Activity (Fusobacterium nucleatum [4]): Active | Activity (Fusobacterium nucleatum [5]): Active | Activity [6]: 100% | Activity (Fusobacterium nucleatum [7]): 50% | Activity (Fusobacterium nucleatum [8]): Active | inhibition [9]: 53.7% | Activity (Fusobacterium nucleatum [10]): Active

CC(C)(C)OC(=O)N1CCC(CN)(Cc2ccc(C(F)(F)F)cc2)CC1
Activity (Fusobacterium nucleatum [1]): Active | Activity (Fusobacterium nucleatum [2]): 50% | Activity (Fusobacterium nucleatum [3]): Active | Activity (Fusobacterium nucleatum [4]): 50% | Activity (Fusobacterium nucleatum [5]): 50% | Activity [6]: 78% | Activity (Fusobacterium nucleatum [7]): 80% | Activity (Fusobacterium nucleatum [8]): Active | inhibition [9]: 78.3% | Activity (Fusobacterium nucleatum [10]): Active

CC(C)(CC(=O)O)c1ccc(F)cc1
Activity (Fusobacterium nucleatum [1]): inactive | Activity (Fusobacterium nucleatum [2]): inactive | Activity (Fusobacterium nucleatum [3]): 50% | Activity (Fusobacterium nucleatum [4]): 80% | Activity (Fusobacterium nucleatum [5]): 80% | Activity [6]: 57% | Activity (Fusobacterium nucleatum [7]): 80% | Activity (Fusobacterium nucleatum [8]): 80% | inhibition [9]: -3.3% | Activity (Fusobacterium nucleatum [10]): 80%

CC(C)(C)OC(=O)N1CCC(CN)(c2ccccc2F)CC1
Activity (Fusobacterium nucleatum [1]): Active | Activity (Fusobacterium nucleatum [2]): 50% | Activity (Fusobacterium nucleatum [3]): Active | Activity (Fusobacterium nucleatum [4]): 50% | Activity (Fusobacterium nucleatum [5]): 50% | Activity [6]: 77% | Activity (Fusobacterium nucleatum [7]): 80% | Activity (Fusobacterium nucleatum [8]): inactive | inhibition [9]: 17.2% | Activity (Fusobacterium nucleatum [10]): Active

CC(C)(C)OC(=O)N1CCC(CN)(c2ccccc2C(F)(F)F)CC1
Activity (Fusobacterium nucleatum [1]): Active | Activity (Fusobacterium nucleatum [2]): 50% | Activity (Fusobacterium nucleatum [3]): 50% | Activity (Fusobacterium nucleatum [4]): Active | Activity (Fusobacterium nucleatum [5]): 80% | Activity [6]: 75% | Activity (Fusobacterium nucleatum [7]): 80% | Activity (Fusobacterium nucleatum [8]): Active | inhibition [9]: 41% | Activity (Fusobacterium nucleatum [10]): Active

COCCOc1ccc(C(=O)O)cc1C(F)(F)F
Activity (Fusobacterium nucleatum [1]): 50% | Activity (Fusobacterium nucleatum [2]): 50% | Activity (Fusobacterium nucleatum [3]): Active | Activity (Fusobacterium nucleatum [4]): 80% | Activity (Fusobacterium nucleatum [5]): 80% | Activity [6]: 67% | Activity (Fusobacterium nucleatum [7]): 80% | Activity (Fusobacterium nucleatum [8]): 80% | inhibition [9]: 16.2% | Activity (Fusobacterium nucleatum [10]): 80%

CC(C)(Cc1cccc(C(F)(F)F)c1)C(=O)O
Activity (Fusobacterium nucleatum [1]): Active | Activity (Fusobacterium nucleatum [2]): Active | Activity (Fusobacterium nucleatum [3]): 50% | Activity (Fusobacterium nucleatum [4]): 80% | Activity (Fusobacterium nucleatum [5]): 80% | Activity [6]: 64% | Activity (Fusobacterium nucleatum [7]): 80% | Activity (Fusobacterium nucleatum [8]): 80% | inhibition [9]: 27.5% | Activity (Fusobacterium nucleatum [10]): 50%

CC(C)(CC(=O)O)c1ccc(C(F)(F)F)cc1
Activity (Fusobacterium nucleatum [1]): Active | Activity (Fusobacterium nucleatum [2]): Active | Activity (Fusobacterium nucleatum [3]): 50% | Activity (Fusobacterium nucleatum [4]): 80% | Activity (Fusobacterium nucleatum [5]): 80% | Activity [6]: 62% | Activity (Fusobacterium nucleatum [7]): 80% | Activity (Fusobacterium nucleatum [8]): 50% | inhibition [9]: 11.3% | Activity (Fusobacterium nucleatum [10]): 80%

O=C(O)c1cnn(-c2ccc(F)cc2)c1
Activity (Fusobacterium nucleatum [1]): Active | Activity (Fusobacterium nucleatum [2]): Active | Activity (Fusobacterium nucleatum [3]): 50% | Activity (Fusobacterium nucleatum [4]): 80% | Activity (Fusobacterium nucleatum [5]): 50% | Activity [6]: 69% | Activity (Fusobacterium nucleatum [7]): 80% | Activity (Fusobacterium nucleatum [8]): 80% | inhibition [9]: -0.6% | Activity (Fusobacterium nucleatum [10]): 80%

Nc1cc(F)c(OCC2CCC2)c(F)c1
Activity (Fusobacterium nucleatum [1]): inactive | Activity (Fusobacterium nucleatum [2]): 50% | Activity (Fusobacterium nucleatum [3]): 50% | Activity (Fusobacterium nucleatum [4]): Active | Activity (Fusobacterium nucleatum [5]): 50% | Activity [6]: 55% | Activity (Fusobacterium nucleatum [7]): 80% | Activity (Fusobacterium nucleatum [8]): inactive | inhibition [9]: 11.6% | Activity (Fusobacterium nucleatum [10]): Active

O=C(O)c1cc(OC(F)(F)F)ccn1
Activity (Fusobacterium nucleatum [1]): Active | Activity (Fusobacterium nucleatum [2]): Active | Activity (Fusobacterium nucleatum [3]): Active | Activity (Fusobacterium nucleatum [4]): 80% | Activity (Fusobacterium nucleatum [5]): 80% | Activity [6]: 4% | Activity (Fusobacterium nucleatum [7]): 80% | Activity (Fusobacterium nucleatum [8]): 80% | inhibition [9]: -6.8% | Activity (Fusobacterium nucleatum [10]): 50%

O=C(O)c1cn(-c2cccc(F)c2)cn1
Activity (Fusobacterium nucleatum [1]): inactive | Activity (Fusobacterium nucleatum [2]): Active | Activity (Fusobacterium nucleatum [3]): inactive | Activity (Fusobacterium nucleatum [4]): 80% | Activity (Fusobacterium nucleatum [5]): 80% | Activity [6]: 36% | Activity (Fusobacterium nucleatum [7]): 80% | Activity (Fusobacterium nucleatum [8]): 80% | inhibition [9]: -4.1% | Activity (Fusobacterium nucleatum [10]): inactive
